From patent US20150125915A1, “Method for Producing Lactic Acid” (Kao Corporation, priority 2012, published 2015)

Experiments:
[1] = system: Rhizopus oryzae JCM14625 strain (=NBRC 5384); test: LDH activity evaluation-1: mycelia prepared from spores in surfactant-supplemented PDB medium, LDH activity of fungus body extract; assay type: cell-based
Protocol: A loopful of a cryopreserved spore suspension sample (−80° C.) of a Rhizopus oryzae JCM14625 strain (=NBRC 5384) obtained from a culture collection Riken BioResource Center (BRC) was inoculated to a PDA medium (Difco Potato Dextrose Agar, manufactured by Becton, Dickinson and Company) and then statically cultured at 30° C. for from 7 to 10 days. After visual confirmation of hyphal growth and blackening at the ends of hyphae associated with sporulation, from 30 to 40 mL of saline was added thereto. Spores, together with hyphae, were collected into a 50-mL centrifugal tube with a lid (manufactured by Greiner bio-one) using a platinum loop and then vigorously mixed in the tube. The spore suspension thus mixed was filtered through 3GP100 cylindrical funnel-shaped glass filter (manufactured by Shibata Scientific Technology Ltd.). The resulting filtrate was used as a spore solution. The number of spores in the spore solution was measured using a hemocytometer (D=1/50 mm· 1/400 mm^2) after appropriate dilution with saline.
80 mL of a PDB medium non-supplemented or supplemented with 0.5% (w/v) (final concentration) of each surfactant described below was applied to a 200-mL baffled Erlenmeyer flask (manufactured by Asahi Glass Co., Ltd.). The Rhizopus oryzae spore suspension prepared in Production Example 1 was inoculated thereto at a dose of 1×10^3 spores/mL of the medium and then cultured at 27° C. for 3 days with stirring at 170 rpm. Since mycelia would remain on the filter, the cultures were filtered through a stainless sieve of 250 μm in mesh size (manufactured by AS ONE Corp.) sterilized in advance to recover fungus bodies onto the filter.
From3.0 to 4.0 g (wet weight) of the recovered fungus bodies was inoculated to 100 mL of an inorganic culture medium (composition: 10% glucose, 0.1% ammonium sulfate, 0.06% potassium dihydrogen phosphate, 0.025% magnesium sulfate heptahydrate, 0.009% zinc sulfate heptahydrate, and 5.0% calcium carbonate; all the concentrations mean % (w/v)) applied to a 500-mL Erlenmeyer flask, and then cultured at 27° C. for approximately 40 hours with stirring at 220 rpm. Subsequently, the cultures thus obtained by culture in the inorganic culture medium were filtered using a stainless screen filter holder (manufactured by EMD Millipore) sterilized in advance to recover fungus bodies onto the filter. On this filter holder, the fungus bodies were further washed with 100 mL of saline. The saline used in washing was removed by suction filtration. The obtained fungus bodies were used in the following LDH activity evaluation and evaluation of the ability to fermentatively produce lactic acid.
6.0 g of the wet fungus bodies of the genus Rhizopus obtained in Production Example 3 was inoculated to 40 mL of an inorganic culture medium for lactic acid production evaluation (composition: 8.0% glucose, 0.1% ammonium sulfate, 0.06% potassium dihydrogen phosphate, 0.025% magnesium sulfate heptahydrate, 0.009% zinc sulfate heptahydrate, and 5.0% calcium carbonate; all the concentrations mean % (w/v)) applied to a 200-mL Erlenmeyer flask, and then cultured at 35° C. with stirring at 170 rpm. After 4.5-hour culture of the fungus bodies of the genus Rhizopus with stirring, the fungus bodies were filtered using a stainless screen filter holder (manufactured by EMD Millipore) sterilized in advance to recover fungus bodies onto the filter. On this filter holder, the fungus bodies were further washed with 100 mL of saline. The saline used in washing was removed by suction filtration. 0.3 g of the obtained fungus bodies was recovered into a 3-mL disruption tube (manufactured by Yasui Kikai Corp.). Metal cone for 3 mL (manufactured by Yasui Kikai Corp.) was added to the tube, which was then capped and then frozen in liquid nitrogen. The frozen 3-mL disruption tube was applied to Multi-Beads Shocker (manufactured by Yasui Kikai Corp.). The fungus bodies were disrupted at 1700 rpm for 10 seconds.

[2] = Evaluation of foaming property by the inversion stirring method; assay type: physicochemical
Protocol: Each surfactant used in Test Example 2 was evaluated for its foaming properties by the inversion stirring method. 100 mL of a PDB medium non-supplemented or supplemented with 0.5% (w/v) (final concentration) of a surfactant was added to a graduated cylindrical container of 50 mm in diameter and then inversion-stirred for 300 seconds using a flat propeller while the propeller was inverted every 6 seconds at 1000 rpm. 30 seconds after the completion of stirring, the volume of foam in the medium was measured.

[3] = system: Rhizopus oryzae NBRC 4785; test: Evaluation of ability to produce lactic acid-2, strain NBRC 4785; assay type: cell-based; conditions: 0.5% (w/v) at spore germination, control of the strain without surfactant = 100
Protocol: (1) Spore suspensions were prepared in the same way as in Production Example 1 using Rhizopus oryzae NBRC 4707, NBRC 4785, NBRC 5384 (=JCM14625), and NBRC 5418 strains obtained from a culture collection NBRC.
(2) Mycelia were prepared from the spores of each strain under the same conditions as in Production Example 2 involving stirring at 100 rpm using 60 mL of a PDB medium non-supplemented or supplemented with 0.5% (w/v) (final concentration) of the surfactant sorbitan monolaurate (Rheodol(R) SP-L10, manufactured by Kao Corp.).
(3) The total amount of the fungus bodies obtained in (2) was inoculated to 100 mL of an inorganic culture medium under the same conditions as in Production Example 3 to grow the mycelia. […]
30 g of the prepared wet fungus bodies of each strain of the genus Rhizopus was inoculated to 100 mL of an inorganic culture medium for lactic acid production evaluation (composition: 12.5% glucose, 0.1% ammonium sulfate, 0.06% potassium dihydrogen phosphate, 0.025% magnesium sulfate heptahydrate, 0.009% zinc sulfate heptahydrate, and 6.25% calcium carbonate; all the concentrations mean % (w/v)) applied to a 500-mL Erlenmeyer flask, and then cultured at 33.5° C. with stirring at 170 rpm. The production rate of lactic acid was determined by the same procedures as in Test Example 2. […]

## Sorbitan monolaurate
[1]; 0.5% (w/v) surfactant at spore germination, versus medium non-supplemented with the surfactant
  LDH activity compared with control fungus bodies (in words): higher LDH activity
[1]; 0.5% (w/v) surfactant in PDB medium at spore germination, LDH activity in the absence of the surfactant = 100
  LDH activity (relative value): 267 relative value
[2]; 0.5% (w/v) in PDB medium
  Volume of foam relative to the volume of foam in the absence of the surfactant (in words): twice or less
[2]; 0.5% (w/v) surfactant in PDB medium, 30 seconds after stirring, foam in the absence of the surfactant = 100
  Volume of foam (relative value): 150 relative value
[3]
  Production rate of lactic acid (relative value): 170 relative value
